From US10526325B2, “Bicyclic heterocyclic derivatives” (Merck Patent GmbH, priority 2015, dated 2020)

What was measured:
PDHK2 = PDHK2 (Homo sapiens (Human), UniProt Q15119); assay: Biochemical activity testing of PDHK2: PDC inactivation assay; conditions: human rec PDHK2, porcine heart PDC, 5 μM ATP, read-out: IC50 PDHK2 (enzyme assay)
Description: Biochemical Activity Testing of PDHK2: PDC Inactivation Assay
The biochemical activity assay for PDHK2 is based on the inactivation of PDC through phosphorylation by PDHK2. The assay is run in two steps: the enzymatic PDHK2 reaction in which isolated PDC is phosphorylated by PDHK2 with ATP as co-substrate and the PDC activity assay in which pyruvate and NAD are converted to acetyl-CoA and NADH. The PDC activity correlates to the increase in NADH and thereby is detectable directly via the increasing fluorescence signal (Exc 340 nm, Em 450 nm). Inhibition of PDHK2 results in a lower phosphorylation status and thereby a less decrease in activity of PDC and a stronger increase in NADH fluorescence signal.
The PDC inactivation assay is performed in Greiner 384-well microtiter plates and is used for high throughput screen. 4 μl of PDHK2 (human, rec, Carna Bioscience, 10 ng/μl-137 nM final concentration) and PDC (isolated from porcine heart, Sigma-Aldrich, 20 mU/ml final concentration) are incubated in the absence or presence of the test compound (10 dilution concentrations) for 30 min at room temperature in kinase buffer (15 mM potassium phosphate buffer, pH 7.0, 60 mM KCl, 1.5 mM DTT, 2.5 mM MgCl2, 0.0125% (w/v) BSA, 0.125% Pluronic F-68). The kinase reaction is started by the addition of 4 μl ATP substrate solution (fc 5 μM in kinase buffer). After 30 min incubation at 37° C. 40 μl of PDC reaction solution (100 mM Tris/HCl, pH 7.8, 0.5 mM EDTA, 1 mM MgCl2, 50 mM NaF, 0.25 mM Coenzyme A, 5 mM pyruvate, 1 mM NAD, 5 mM DTT, 1 mM thiamine pyrophosphate) is added. The first fluorescence measurement is performed on a Perkin Elmer Envision (Exc 340 nm, Em 450 nm). The reaction is incubated for 45 min at room temperature. Afterwards a second fluorescence measurement is performed and the PDC activity is calculated by the difference between both measurements. As full value for the PDHK2 assay the inhibitor-free PDHK2 reaction is used. The pharmacological zero value used is DCA (Sigma-Aldrich) in a final concentration of 3 mM. The inhibitory values […] were determined using either the program Symyx Assay Explorer® or Condosseo® from GeneData.

human PDHK2 (12-407) = human PDHK2 (12-407) (Homo sapiens (Human), UniProt Q15119); assay: Isothermal titration calorimetry (ITC) binding; conditions: ITC at 30° C., pH 7.5
Protocol: Isothermal Titration Calorimetry
ITC measurements were performed with a VP-ITC micro calorimeter (Microcal, LLC/GE Healthcare Bio-Sciences Aft Uppsala, Sweden). In general titrations were performed by titrating the protein (50 μM) to the test compound (5 μM) in 12 μl injections. All binding experiments were carried out at 30° C. In general the test compounds were diluted form DMSO stock solutions into the measurement buffer with a maximum final concentration of 1% DMSO. The measurement buffer was 20 mM HEPES, 135 mM KCl, 1 mM TCEP, 2 mM MgCl2, 15 mM NaH2PO4, pH 7.5. The human PDHK2 (12-407) was produced in E. coli as his-tagged protein and purified by affinity chromatography. The tag was removed by side specific proteolysis. Before titration the protein buffer was changed to the measurement buffer containing the same DMSO concentration as the test compound dilution. ITC data analysis was performed using Origin 7 calorimetry software from the same supplier. For most measurements a binding model of one binding site was assumed. According to the applied mathematical model it is possible to calculate the binding constant (KA), the observed binding enthalpy (ΔH^obs) as well as the stoichiometry (N) of the formed complex.
Preceding analysis the raw data was corrected for the heats of dilution by extrapolating from the saturation value from the end of titration. In order to allow for direct comparison between the respective experimental series and protein preparations the protein concentration was corrected by referencing titrations to a well behaved standard inhibitor. The apparent stoichiometry values defined the fraction of binding competent protein and compensated for relative errors in protein concentration measurements. This corrected protein concentration was used to set up ITC experiment series with test compounds. Any deviations from ideal 1:1 stoichiometry observed here were attributed to errors in compound concentration. This nominal compound concentration was corrected as well to achieve 1:1 stoichiometry in the fit.

[1] = tested on: PDH-E1alpha (pSer300) in HEK293T cells; assay: Cellular immunofluorescence assay, PDH-E1alpha (pSer300) in HEK293T cells; format: cell-based, human; conditions: Homo sapiens, HEK-293T, 5 hours incubation, anti-PDH-E1alpha (pSer300) immunofluorescence, read-out: IC50 (cell data)
Protocol: Cellular Assay for Determination of Compound Activities
Compound activities were determined in a cellular immunofluorescence assay. Human HEK293T cells were seeded into black 384-well plates with clear bottom and grown overnight.
Next day, test compounds were added to the wells and the plates incubated for 5 hours. Following this, cells were fixed with formaldehyde, permeabilised and blocked. The primary antibody, Anti-PDH-E1alpha (pSer300), AP1064 (Merck Millipore) was added and incubated overnight in the plate wells. Next, cells were washed and the secondary antibody, Alexa Fluor 488, goat anti-rabbit ab (A-11008, Invitrogen) was added together with Hoechst 33258 (H3569, Invitrogen) and incubated for 1 hour in the plate wells. Finally, cells were washed and the plates were measured on the laser scanning cytometer acumen hci (TTpLabtech).
The raw data were normalized against a pharmacological inhibitor control and dose response curves were generated by plotting the percent effect values using the software package Genedata screener (Genedata).

Row | Compound | IC50 (PDHK2) [µM] | Kd (human PDHK2 (12-407)) [nM] | IC50 [1] [nM]
1 | C[C@@H]1CN(C(=O)C(C)(C)O)Cc2cnn(-c3ccc(F)cc3)c21 [Compound A42, 1-[(R)-1-(4-Fluoro-phenyl)-7-methyl-1,4,6,7-tetrahydro-pyrazolo[4,3-c]pyridin-5-yl]-2-hydroxy-2-methyl-propan-1-one] | 0.3 to 3 | < 300 | 
2 | C[C@H]1CN(C(=O)[C@@](C)(O)C(F)(F)F)Cc2cnn(C3CCC(O)CC3)c21 (stereo partly drawn) [Compound A39, (R)-3,3,3-Trifluoro-2-hydroxy-1-[(S)-1-(4-hydroxy-cyclohexyl)-7-methyl-1,4,6,7-tetrahydro-pyrazolo[4,3-c]pyridin-5-yl]-2-methyl-propan-1-one] | 0.3 to 3 |  | 
3 | COc1ncc(F)c(-n2ncc3c2[C@H](C)CN(C(=O)[C@@](C)(O)C(F)(F)F)C3)n1 [Compound A36, (R)-3,3,3-Trifluoro-1-[(R)-1-(5-fluoro-2-methoxy-pyrimidin-4-yl)-7-methyl-1,4,6,7-tetrahydro-pyrazolo[4,3-c]pyridin-5-yl]-2-hydroxy-2-methyl-propan-1-one] | 0.3 to 3 |  | 
4 | C[C@H]1CN(C(=O)[C@@](C)(O)C(F)(F)F)Cc2cn[nH]c21 [Compound A29, (R)-3,3,3-Trifluoro-2-hydroxy-2-methyl-1-((S)-7-methyl-1,4,6,7-tetrahydro-pyrazolo[4,3-c]pyridin-5-yl)-propan-1-one] | 0.3 to 3 | 300 to 3000 | 
5 | C[C@H]1CN(C(=O)[C@@](C)(O)C(F)(F)F)Cc2cnn(-c3ccccc3)c21 [Compound A19, (R)-3,3,3-Trifluoro-2-hydroxy-2-methyl-1-((S)-7-methyl-1-phenyl-1,4,6,7-tetrahydro-pyrazolo[4,3-c]pyridin-5-yl)-propan-1-one] | 0.3 to 3 |  | 300 to 3000
6 | C[C@@](O)(C(=O)N1CCc2c(ncn2-c2ccc(Cl)cc2)C1)C(F)(F)F [Compound A45, (R)-1-[1-(4-Chloro-phenyl)-1,4,6,7-tetrahydro-imidazo[4,5-c]pyridin-5-yl]-3,3,3-trifluoro-2-hydroxy-2-methyl-propan-1-one] | 0.3 to 3 |  | 3000 to 50000
7 | C[C@H]1CN(C(=O)[C@@](C)(O)C(F)(F)F)Cc2cnn(-c3ccccc3C#N)c21 [Compound A27, 2-[(S)-7-Methyl-5-((R)-3,3,3-trifluoro-2-hydroxy-2-methyl-propionyl)-4,5,6,7-tetrahydro-pyrazolo[4,3-c]pyridin-1-yl]-benzonitrile] | 0.3 to 3 |  | 
8 | C[C@@](O)(C(=O)N1CCn2c(nnc2-c2ccccc2)C1)C(F)(F)F [Compound A48, (R)-3,3,3-Trifluoro-2-hydroxy-2-methyl-1-(3-phenyl-5,6-dihydro-8H-[1,2,4]triazolo[4,3-a]pyrazin-7-yl)-propan-1-one] | 0.3 to 3 | < 300 | 
9 | C[C@@](O)(C(=O)N1CCc2nn(-c3ccc(Cl)cc3)cc2C1)C(F)(F)F [Compound A2, (2R)-1-[2-(4-chlorophenyl)-6,7-dihydro-4H-pyrazolo[4,3-c]pyridin-5-yl]-3,3,3-trifluoro-2-hydroxy-2-methyl-propan-1-one] | 3 to 50 | 300 to 3000 | 
10 | C[C@@H]1CN(C(=O)[C@@](C)(O)C(F)(F)F)Cc2cnn(-c3ccccc3C#N)c21 [Compound A26, 2-[(R)-7-Methyl-5-((R)-3,3,3-trifluoro-2-hydroxy-2-methyl-propionyl)-4,5,6,7-tetrahydro-pyrazolo[4,3-c]pyridin-1-yl]-benzonitrile] | 3 to 50 |  | 
11 | C[C@H]1CN(C(=O)[C@@](C)(O)C(F)(F)F)Cc2cnn(C(C)(C)C)c21 [Compound A23, (R)-1-((S)-1-tert-Butyl-7-methyl-1,4,6,7-tetrahydro-pyrazolo[4,3-c]pyridin-5-yl)-3,3,3-trifluoro-2-hydroxy-2-methyl-propan-1-one] | 3 to 50 |  | 

Second part, led by results:

Row | IC50 (PDHK2) [µM] | Kd (human PDHK2 (12-407)) [nM] | Compound | IC50 [1] [nM]
12 | 3 to 50 |  | C[C@H]1CN(C(=O)[C@@](C)(O)C(F)(F)F)Cc2cnn(-c3ncccc3F)c21 [Compound A33, (R)-3,3,3-Trifluoro-1-[(S)-1-(3-fluoro-pyridin-2-yl)-7-methyl-1,4,6,7-tetrahydro-pyrazolo[4,3-c]pyridin-5-yl]-2-hydroxy-2-methyl-propan-1-one] | 
13 | 3 to 50 |  | C[C@H]1CN(C(=O)[C@@](C)(O)C(F)(F)F)Cc2cnc(-c3ccc(F)cc3)n21 [Compound A53, (R)-3,3,3-Trifluoro-1-[(S)-3-(4-fluoro-phenyl)-5-methyl-5,6-dihydro-8H-imidazo[1,5-a]pyrazin-7-yl]-2-hydroxy-2-methyl-propan-1-one] | 
14 | 0.3 to 3 |  | C[C@H]1CN(C(=O)[C@@](C)(O)C(F)(F)F)Cc2cnc(-c3ccc(F)cc3F)n21 [Compound A55, (R)-1-[(S)-3-(2,4-Difluoro-phenyl)-5-methyl-5,6-dihydro-8H-imidazo[1,5-a]pyrazin-7-yl]-3,3,3-trifluoro-2-hydroxy-2-methyl-propan-1-one] | 
15 | 0.3 to 3 |  | C[C@H]1CN(C(=O)[C@@](C)(O)C(F)(F)F)Cc2cnn(-c3ccccc3F)c21 [Compound A25, (R)-3,3,3-Trifluoro-1-[(S)-1-(2-fluoro-phenyl)-7-methyl-1,4,6,7-tetrahydro-pyrazolo[4,3-c]pyridin-5-yl]-2-hydroxy-2-methyl-propan-1-one] | 
16 | 0.3 to 3 |  | C[C@H]1CN(C(=O)[C@@](C)(O)C(F)(F)F)Cc2cnn(-c3ncc(F)cc3F)c21 [Compound A35, (R)-1-[(S)-1-(3,5-Difluoro-pyridin-2-yl)-7-methyl-1,4,6,7-tetrahydro-pyrazolo[4,3-c]pyridin-5-yl]-3,3,3-trifluoro-2-hydroxy-2-methyl-propan-1-one] | 
17 | 3 to 50 |  | C[C@H]1CN(C(=O)[C@@](C)(O)C(F)(F)F)Cc2cnn(-c3ccc(F)cn3)c21 [Compound A41, (R)-3,3,3-Trifluoro-1-[(S)-1-(5-fluoro-pyridin-2-yl)-7-methyl-1,4,6,7-tetrahydro-pyrazolo[4,3-c]pyridin-5-yl]-2-hydroxy-2-methyl-propan-1-one] | 
18 | 0.3 to 3 |  | C[C@H]1CN(C(=O)[C@@](C)(O)C(F)(F)F)Cc2cnn(-c3ccc(F)cc3F)c21 [Compound A21, (R)-1-[(S)-1-(2,4-Difluoro-phenyl)-7-methyl-1,4,6,7-tetrahydro-pyrazolo[4,3-c]pyridin-5-yl]-3,3,3-trifluoro-2-hydroxy-2-methyl-propan-1-one] | 
19 | 3 to 50 |  | C[C@H]1CN(C(=O)[C@@](C)(O)C(F)(F)F)Cc2cnc(-c3ncc(F)cc3F)n21 [Compound A56, (R)-1-[(S)-3-(3,5-Difluoro-pyridin-2-yl)-5-methyl-5,6-dihydro-8H-imidazo[1,5-a]pyrazin-7-yl]-3,3,3-trifluoro-2-hydroxy-2-methyl-propan-1-one] | 
